pIC50: −log10 of the molar value. Several values for one entry are separate records, joined by “and”; a condition that tells them apart may be missing. Equal values may be shown once.
Experiments:
[1] = test system: corticosterone-treated mice; assay: sucrose preference test, chronic administration, corticosterone model; assay type: in vivo; settings: for effect on corticosterone-induced decrease in sucrose intake: 21 days
Experimental: The dose and route of administration of corticosterone was based on studies performed by Zhao and colleagues. Thirty minutes before, corticosterone injection mice were given (i.p.) saline, HBK-14 (1.25 or 2.5 mg/kg), HBK-15 (0.625 or 1.25 mg/kg), or fluoxetine (10 mg/kg) (Fig. 1b). Control mice received (i.p.) saline and 30 min later saline containing 0.1% dimethyl sulfoxide (DMSO) and 0.1% Tween-80 (s.c.). The experimental groups consisted of eight randomly selected animals. After the end of the procedure, animals were tested in the sucrose preference test, forced swim test, elevated plus maze test, and spontaneous locomotor activity test. Following behavioral testing, rodents were scarified and their hippocampi collected for biochemical analysis. The sucrose preference test was conducted according to the slightly modified methods described by Liu and colleagues and Filho and colleagues. The test was performed before and after the administration of corticosterone. Briefly, before the proper test, mice were housed singly and given 72 h training to acclimate to the test procedures. In the first 24 h, access ad libitum to two feeding bottles of 1% (w/v) sucrose solution was given to each mouse. After 24 h, one bottle was replaced with tap water for the next 24 h. Then, mice were deprived of water and food for the third 24 h. On the test day, the weight of each bottle (1% sucrose solution and tap water) was recorded. Test animals were then given the bottles of 1% sucrose and water for 24 h. The consumed liquid weight was measured based on the weight of each bottle of fluids after sucrose preference test minus the original starting weight. The percentage of sucrose intake was calculated using the following equation: %Sucrose intake=Sucrose intake/Sucrose intake+water intake⋅100%

[2] = test system: corticosterone-treated mice; assay: spontaneous locomotor activity, chronic administration; assay type: in vivo; settings: 6 min session
Experimental: The doses and route of administration of the studied compounds were based on our previous experiments. […] Mice were injected with corticosterone (s.c., 20 mg/kg) at random times during the light phase for 21 consecutive days (Fig. 1b). The dose and route of administration of corticosterone was based on studies performed by Zhao and colleagues. Thirty minutes before, corticosterone injection mice were given (i.p.) saline, HBK-14 (1.25 or 2.5 mg/kg), HBK-15 (0.625 or 1.25 mg/kg), or fluoxetine (10 mg/kg) (Fig. 1b). Control mice received (i.p.) saline and 30 min later saline containing 0.1% dimethyl sulfoxide (DMSO) and 0.1% Tween-80 (s.c.). The experimental groups consisted of eight randomly selected animals. After the end of the procedure, animals were tested in the sucrose preference test, forced swim test, elevated plus maze test, and spontaneous locomotor activity test. Following behavioral testing, rodents were scarified and their hippocampi collected for biochemical analysis. The locomotor activity was performed as previously described. Locomotor activity was recorded individually for each mouse using activity cages made of clear Perspex (40 cm × 40 cm × 31 cm, Activity Cage 7441, Ugo Basile, Italy). The cages were supplied with I.R. horizontal beam emitters connected to a counter for the recording of light-beam interruptions. Each mouse was placed in a cage for a 30-min habituation period. […] The cages were disinfected with 70% ethanol after each mouse.

5-HT7 receptor = target: 5-HT7 receptor; design: method as in PMID 26554929; settings: previous experiments; read-out: 5-HT7 receptor antagonist IC50; cited from earlier work
[3] = cited from earlier work; for effect on blood pressure after chronic treatment: antidepressant- and anxiolytic-like doses
[4] = test system: BDNF level in the hippocampus; assay: BDNF level in the hippocampus (ELISA), single administration; assay type: in vivo, mice
Experimental: Mice were injected with corticosterone (s.c., 20 mg/kg) at random times during the light phase for consecutive 21 days (Fig. 1c). The dose and route of administration of corticosterone were based on studies performed by Zhao and colleagues. After the end of the procedure, next day 30 min before the test, corticosterone-treated mice were given (i.p.) saline, HBK-15 (1.25 mg/kg), fluoxetine (10 mg/kg), or ketamine (1 mg/kg) (Fig. 1c). Control mice received (i.p.) saline. The experimental groups consisted of eight randomly selected animals. We chose the dose of HBK-15 that was active in the chronic experiments (i.e., 1.25 mg/kg). The dose of ketamine was based on the studies performed by Pazini and colleagues. Animals were tested in the forced swim test and spontaneous locomotor activity test. After behavioral testing, mice were scarified and their hippocampi collected for biochemical analysis.
After the behavioral assessments, mice were sacrificed, and their brains were rapidly removed and chilled in an ice-cold saline solution. The hippocampi were dissected on a cold plate, frozen, and stored at −80 °C until assay. On the day of experiments, tissues were thawed on ice and homogenized (1:9 w/v) in phosphate-buffered saline (4 °C) and protease inhibitor cocktail was added. The 10% homogenates were prepared and homogenized for 30 s with TissueRuptor homogenizer. The homogenized tissues were centrifuged (2500×g at 4 °C for 20 min), and the supernatants were collected for further assays.
Protein concentrations of BDNF and NGF in homogenates from hippocampi were determined using the enzyme-linked immunosorbent assay (ELISA) kits (BDNF: DZE201020014, SunRed Biotechnology Company; NGF: MBS825100, MyBioSource) according to the manufacturer’s instructions. […] The samples were analyzed in duplicates, and the mean concentrations were calculated. […] The intensity of the color was read at 450 nm. Absorbance was measured in a multifunction plate reader (POLARstar Omega, BMG Labtech, Germany). […]

[5] = 1.25 mg/kg i.p. 21 days + corticosterone
[6] = corticosterone 20 mg/kg s.c. 21 days + saline

In the case of `COc1ccccc1N1CCN(CCOCCOc2c(C)cccc2C)CC1.Cl` [HBK-14, 1-[(2,6-Dimethylphenoxy)ethoxyethyl]-4-(2-methoxyphenyl)piperazine hydrochloride], the “effect on corticosterone-induced decrease in sucrose intake” value ([1]; 1.25 or 2.5 mg/kg i.p.) was “inactive”, the “Number of crossings ± S.E.M” value [2, 5] was 406.3 ± 64.2 and the “Number of crossings ± S.E.M” value ([2]; 2.5 mg/kg i.p. 21 days + corticosterone) was 400.8 ± 55.8. The pIC50 (5-HT7 receptor) was 7.11 and the “effect on blood pressure after chronic treatment” value [3] was “neither HBK-14 nor HBK-15 lowered blood pressure”.

With `COc1ccccc1N1CCN(CCOCCOc2c(C)cccc2Cl)CC1.Cl` [HBK-15, 1-[(2-chloro-6-methylphenoxy)ethoxyethyl]-4-(2-methoxyphenyl)piperazine hydrochloride] the “effect on corticosterone-induced decrease in sucrose intake” value ([1]; 1.25 mg/kg i.p.) was “prevented the decrease in sucrose intake”, the “Number of crossings ± S.E.M” value ([2]; 0.625 mg/kg i.p. 21 days + corticosterone) was 466.1 ± 84.8 and the “Number of crossings ± S.E.M” value [2, 5] was 478.9 ± 78.8. For the same molecule, the “effect on corticosterone-induced decrease in BDNF level in the hippocampus” value ([4]; single 1.25 mg/kg i.p.) was “reversed the decrease in BDNF level”, the pIC50 (5-HT7 receptor) was 6.66 and the “effect on blood pressure after chronic treatment” value [3] was “neither HBK-14 nor HBK-15 lowered blood pressure”. The “hypotensive activity after single administration” value [3] was “did not exhibit hypotensive activity”.

For `C[C@]12C[C@H](O)[C@H]3[C@@H](CCC4=CC(=O)CC[C@@]43C)[C@@H]1CC[C@@H]2C(=O)CO` [corticosterone], the “decrease in percentage intake of sucrose solution vs control” value [1, 6] was 17% and 21%, the “Number of crossings ± S.E.M” value [2, 6] was 343.4 ± 27.3 and 394.5 ± 67.1 and the “decrease in BDNF level in the hippocampus vs control” value ([4]; acute experiment, corticosterone 20 mg/kg s.c. 21 days + saline) was 47.0%.

With `CNCCC(Oc1ccc(C(F)(F)F)cc1)c1ccccc1` (centres unmarked) [fluoxetine, reference compound] the “effect on corticosterone-induced decrease in sucrose intake” value ([1]; 10 mg/kg i.p.) was “prevented the decrease in sucrose intake” and the “Number of crossings ± S.E.M” value ([2]; 10 mg/kg i.p. 21 days + corticosterone) was 510.3 ± 54.0 and 423.3 ± 47.3.
